Target: T1, IKKα (Homo sapiens, UniProt O15111)
T1 construct: gene CHUK; recombinant IKKα (Invitrogen), described as a monomer
T1 sequence (O15111 1-745): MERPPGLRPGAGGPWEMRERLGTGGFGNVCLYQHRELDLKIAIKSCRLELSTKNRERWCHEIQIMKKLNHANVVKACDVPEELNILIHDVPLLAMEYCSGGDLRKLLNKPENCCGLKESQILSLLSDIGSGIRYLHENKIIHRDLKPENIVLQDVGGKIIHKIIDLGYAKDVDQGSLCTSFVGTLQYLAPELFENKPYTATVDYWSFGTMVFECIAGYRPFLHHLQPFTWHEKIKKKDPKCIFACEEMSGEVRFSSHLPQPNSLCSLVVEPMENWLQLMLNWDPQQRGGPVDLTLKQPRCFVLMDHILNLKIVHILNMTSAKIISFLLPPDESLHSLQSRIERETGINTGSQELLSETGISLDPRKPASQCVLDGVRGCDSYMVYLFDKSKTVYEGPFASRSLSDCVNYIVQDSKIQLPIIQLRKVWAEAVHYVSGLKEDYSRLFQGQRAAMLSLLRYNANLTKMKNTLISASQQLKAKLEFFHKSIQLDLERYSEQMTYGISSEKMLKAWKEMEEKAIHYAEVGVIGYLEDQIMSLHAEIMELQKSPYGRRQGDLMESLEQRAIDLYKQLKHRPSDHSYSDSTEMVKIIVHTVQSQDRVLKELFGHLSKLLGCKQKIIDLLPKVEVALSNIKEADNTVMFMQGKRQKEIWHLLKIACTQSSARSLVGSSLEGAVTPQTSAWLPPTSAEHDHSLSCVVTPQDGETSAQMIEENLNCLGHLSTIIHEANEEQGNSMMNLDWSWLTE
Assay: in vitro kinase assay with recombinant IKKα and IKKtide, UPLC-MS readout
Format: biochemical

IC50: 500 ± 86 µM
Structure (SMILES): CC(=O)N[C@@H](Cc1ccccc1)C(=O)N[C@@H]1[C@@H](O)[C@H](O)[C@@H](CO)O[C@H]1O [NAPA, 2-(N-Acetyl)-L-phenylalanylamido-2-deoxy-β -D-glucose]
